# Measurements as given in PubChem BioAssay (NCI).
# Several values for one entry are separate records, joined by “and”; a condition that tells them apart may be missing. Identical values can stand only once.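 Values below derive from 48-hour exposures of cells grown in 96-well plates, with endpoints linearly interpolated between the two concentrations bracketing the appropriate inhibition level. GI50 marks 50% less growth. TGI: concentration producing complete growth inhibition.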
# Tests used:
# Assay in all cases: NCI anticancer screen, dose series, 48 h
# ACHN renal = tested on: ACHN renal
# EKVX NSCLC = tested on: EKVX NSCLC
# HCC-2998 colon = tested on: HCC-2998 colon
# HCT-15 colon = tested on: HCT-15 colon
# LOX IMVI melanoma = tested on: LOX IMVI melanoma
# MDA-MB-435 = tested on: MDA-MB-435
# OVCAR-8 ovarian = tested on: OVCAR-8 ovarian
# SF-539 CNS = tested on: SF-539 CNS
# SW-620 colon = tested on: SW-620 colon
# UO-31 renal = tested on: UO-31 renal
Structure (SMILES),GI50 (ACHN renal),TGI (ACHN renal),GI50 (EKVX NSCLC),TGI (EKVX NSCLC),GI50 (HCC-2998 colon),TGI (HCC-2998 colon),GI50 (HCT-15 colon),TGI (HCT-15 colon),GI50 (LOX IMVI melanoma),TGI (LOX IMVI melanoma),GI50 (MDA-MB-435),TGI (MDA-MB-435),GI50 (OVCAR-8 ovarian),TGI (OVCAR-8 ovarian),GI50 (SF-539 CNS),TGI (SF-539 CNS),GI50 (SW-620 colon),TGI (SW-620 colon),GI50 (UO-31 renal),TGI (UO-31 renal)
COc1cc2ncn(-c3cc(OCc4ccccc4C(F)(F)F)c(C(N)=O)s3)c2cc1OC,2790 nM,> 25 µM,3.69 µM,> 25 µM,276 nM,> 25 µM,211 nM,> 25 µM,139 nM,> 25 µM,55.2 nM,0.282 µM,168 nM,> 19.9 µM,139 nM,> 11.6 µM,82.2 nM,> 25 µM,> 18400 nM,> 25000 nM
S=c1ssnc1-c1cc2ccccc2o1,15200 nM,38.8 µM,11.8 µM,30.8 µM,16400 nM,34.4 µM,11500 nM,25.5 µM,4120 nM,15.7 µM,11600 nM,32 µM,11300 nM,29.4 µM,15300 nM,29.8 µM,12700 nM,27.6 µM,13400 nM,30000 nM
Clc1ccc2c(NCCNc3nc(N4CCOCC4)nc4ccccc34)ccnc2c1,1750 nM,3.49 µM,4 µM,16.4 µM,2670 nM,6.54 µM,2490 nM,8.47 µM,1800 nM,3.45 µM,2340 nM,5.88 µM,2180 nM,5.24 µM,1730 nM,3.34 µM,2970 nM,10.8 µM,1340 nM,2680 nM
CC1(C)CC(O)CC(C)(C)N1O,–,> 100 µM,–,> 100 µM,–,> 100 µM,–,> 100 µM,> 100000 nM,> 100 µM,–,> 100 µM,–,> 100 µM,–,> 100 µM,–,> 100 µM,–,> 100000 nM
COC(=O)[C@@]12OC[C@]34[C@H]([C@@H](O)[C@@H]1O)[C@@]1(C)CC(=O)C(O)=C(C)[C@@H]1C[C@H]3OC(=O)[C@H](OC(=O)/C=C(\C)C(C)C)[C@@H]24,20 nM,0.026 µM and 0.0124 µM and 0.0245 µM,–,0.0517 µM and 0.0283 µM and 0.0316 µM,–,0.00342 µM,–,0.0588 µM and 0.0562 µM and 0.055 µM,–,–,–,0.0415 µM and 0.0128 µM,–,0.0406 µM and 0.0561 µM,–,0.00611 µM and 0.0234 µM,–,–,–,83.4 nM and 142 nM and 405 nM
CC(C)(C)N/N=C(/Cc1nc2c3c(ccc2[nH]c1=O)C(=O)c1ccccc1C3=O)C(=O)NC1=C(Cl)C(=O)c2ccccc2C1=O,–,> 100 µM,–,> 100 µM,–,> 100 µM,–,20.3 µM,–,> 100 µM,–,> 100 µM,–,98.6 µM,–,> 100 µM,–,> 100 µM,–,> 100000 nM
COc1cc(N=Nc2cc(Cc3ccc(N(C)C)cc3)c(N)cc2N(C)C)c2ncccc2c1,233 nM,1.69 µM,0.332 µM,1.98 µM,1160 nM,2.66 µM,195 nM,1.99 µM,465 nM,1.87 µM,515 nM,2.07 µM,387 nM,2.19 µM,705 nM,2.06 µM,374 nM,2.16 µM,252 nM,1970 nM
[Br][Pb]([c]1ccccc1)([c]1ccccc1)[c]1ccccc1,175 nM,0.328 µM,0.183 µM,0.439 µM,191 nM,0.412 µM,148 nM,0.329 µM,132 nM,0.299 µM,190 nM,0.435 µM,186 nM,0.384 µM,252 nM,0.596 µM,163 nM,0.3 µM,141 nM,279 nM
O=c1c(I)c[nH]cc1I,> 100000 nM,> 100 µM,> 100 µM,> 100 µM,> 100000 nM,> 100 µM,> 100000 nM,> 100 µM,> 100000 nM,> 100 µM,> 100000 nM,> 100 µM,> 100000 nM,> 100 µM,> 100000 nM,> 100 µM,> 100000 nM,> 100 µM,> 100000 nM,> 100000 nM
CN1C2C=CC(=O)C1C1C(=O)N(c3ccccc3)C(=O)C12 (centres undefined),6930 nM,20.9 µM,14.4 µM,32.7 µM,13300 nM,29.3 µM,5520 nM,20.3 µM,3740 nM,13.3 µM,3440 nM,22.8 µM,4220 nM,20.3 µM,4870 nM,17.7 µM,3090 nM,10.7 µM,3490 nM,17900 nM
COc1ccc2nc3ccccc3c(NCCNCCO)c2c1,478 nM,21.1 µM,1.43 µM,7.32 µM,898 nM,2.5 µM,2040 nM,22.2 µM,404 nM,3.75 µM,474 nM,1.83 µM,528 nM,8.88 µM,801 nM,2.99 µM,362 nM,3.66 µM,328 nM,1680 nM
CC(C)(O)C1COC2=C1C(=O)c1ccccc1C2=O (centres undefined),–,> 100 µM,–,> 100 µM,–,> 100 µM,–,> 100 µM,–,41.9 µM,–,44.6 µM,–,84.6 µM,–,> 100 µM,–,50.4 µM,–,> 100000 nM
C=C1C(=O)OC2CC(C)C(/C=C/C(C)=O)=CCC12 (centres undefined),–,> 100 µM,–,> 100 µM,–,> 100 µM,–,> 100 µM,–,> 100 µM,–,> 100 µM,–,> 100 µM,–,> 100 µM,–,> 100 µM,–,–
C=CCC(N[C@@H](CO)c1ccccc1)c1ccc2ccccc2n1 (some centres undefined),> 100000 nM,> 100 µM,> 100 µM,> 100 µM,> 100000 nM,> 100 µM,> 100000 nM,> 100 µM,> 100000 nM,> 100 µM,> 100000 nM,> 100 µM,> 100000 nM,> 100 µM,> 100000 nM,> 100 µM,> 100000 nM,> 100 µM,88200 nM,> 100000 nM
